Results: ChEMBL document CHEMBL4431378, “Small Molecule Antagonists of the Nuclear Androgen Receptor for the Treatment of Castration-Resistant Prostate Cancer” (ACS Med Chem Lett, 2016)

The compounds below were run against T1, Androgen receptor (Homo sapiens, UniProt P10275) (assay: Antagonist activity at androgen receptor in human C4-2-PSA-rl cells incubated for 24 hrs in presence of androgen R1881 by dual-glo luciferase reporter gene assay).
T1 sequence (P10275 whole entry): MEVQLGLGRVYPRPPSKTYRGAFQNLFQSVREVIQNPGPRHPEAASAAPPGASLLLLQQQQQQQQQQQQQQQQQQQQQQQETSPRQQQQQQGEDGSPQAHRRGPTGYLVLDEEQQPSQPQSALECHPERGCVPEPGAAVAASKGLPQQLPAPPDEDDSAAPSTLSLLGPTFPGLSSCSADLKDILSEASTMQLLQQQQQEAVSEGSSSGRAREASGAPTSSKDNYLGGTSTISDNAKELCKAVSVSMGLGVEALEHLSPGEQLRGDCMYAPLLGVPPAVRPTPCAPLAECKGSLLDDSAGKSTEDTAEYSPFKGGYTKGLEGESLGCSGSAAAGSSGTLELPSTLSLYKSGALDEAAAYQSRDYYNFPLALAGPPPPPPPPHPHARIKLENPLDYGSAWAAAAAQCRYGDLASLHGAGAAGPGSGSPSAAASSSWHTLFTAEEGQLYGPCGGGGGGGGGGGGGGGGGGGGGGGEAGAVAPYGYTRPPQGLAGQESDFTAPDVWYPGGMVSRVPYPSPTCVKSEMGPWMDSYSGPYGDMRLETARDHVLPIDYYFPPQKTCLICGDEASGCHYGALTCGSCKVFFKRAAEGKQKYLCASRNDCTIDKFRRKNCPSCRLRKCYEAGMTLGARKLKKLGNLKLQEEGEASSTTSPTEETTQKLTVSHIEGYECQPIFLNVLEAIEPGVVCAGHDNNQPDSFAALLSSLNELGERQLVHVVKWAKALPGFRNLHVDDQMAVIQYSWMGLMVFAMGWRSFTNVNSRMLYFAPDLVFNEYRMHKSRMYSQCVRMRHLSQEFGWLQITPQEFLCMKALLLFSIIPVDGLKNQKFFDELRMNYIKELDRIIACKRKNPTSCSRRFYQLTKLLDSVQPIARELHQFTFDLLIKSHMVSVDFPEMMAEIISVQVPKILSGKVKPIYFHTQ
Assay type: cell-based

| Structure (SMILES) | EC50 [µM] |
| --- | --- |
| Cc1ccccc1N1CCN(C(=O)NCSCc2c(C)noc2C)CC1 | > 25 |
| Cc1ccc(Cl)cc1N1CCN(C(=O)C2CC2c2ccc(F)cc2)CC1 (racemic) | 2.7 |
| Cc1ccccc1N1CCN(C(=O)COCc2c(C)noc2C)CC1 | > 25 |
| COc1ccccc1N1CCN(C(=O)CSCc2c(C)noc2C)CC1 | > 25 |
| Cc1ccc(N2CCN(C(=O)CSCc3c(C)noc3C)CC2)cc1 | > 25 |
| Cc1ccccc1N1CCN(C(=O)CSc2ccccc2)CC1 | > 25 |
| Cc1ccccc1N1CCN(C(=O)[C@H]2C[C@@H]2c2ccccc2)CC1 (relative stereo) | > 25 |
| Cc1ccccc1N1CCN(C(=O)C[S+]([O-])Cc2c(C)noc2C)CC1 (stereo not given) | > 25 |
| Cc1cccc(N2CCN(C(=O)CSCc3c(C)noc3C)CC2)c1 | > 25 |
| Cc1ccccc1N1CCN(C(=O)/C=C/c2ccccc2)CC1 | > 25 |
| Cc1noc(C)c1CSCC(=O)N1CCN(c2ccccc2)CC1 | > 25 |
| Cc1ccc(Cl)cc1N1CCN(C(=O)[C@@H]2C[C@@H]2c2ccc(F)cc2)CC1 | 15.2 |
| Cc1ccccc1N1CCC(OC(=O)NCSCc2c(C)noc2C)CC1 | > 25 |
| Cc1ccc(Cl)cc1N1CCN(C(=O)[C@H]2C[C@H]2c2ccc(F)cc2)CC1 | 1.7 |
| Cc1ccccc1N1CCN(C(=O)CN(C)Cc2ccccc2)CC1 | > 25 |
